Molecules are shown by their SMILES.

Series [1] relates to EcR/RXR. As to the kind of experiment: Immunodetection of intracellularly expressed luciferase, spot illumination. Particulars: 293T cells; for Luciferase expression by immunofluorescence, without illumination: 100 μM, 16 hr incubation, no light; for Luciferase expression by immunofluorescence after spot illumination: 4 washed out, spot illuminated (~0.25 mm^2) 10 sec, 6 hr incubation. The class given is cell-based. On the procedure: Immunodetection of Intracellularly Expressed Luciferase. 293T cells were transferred to the individual wells of a 24-well culture plate (Becton Dickinson Labware, lot #353047) and transfected as described above. The cells were then incubated with either 100 μM β-ecdysone or 100 μM caged β-ecdysone for 16 hr. The medium was removed and the cells washed once with PBS before addition of an ecdysteroid free medium. The surface of the pre-scored wells was spot illuminated (˜0.25 mm^2) for 10 sec on a light microscope using a 100 W Hg-Arc lamp through an Olympus UAPO 20×/0.40 objective. The cells were then incubated for 6 hr, fixed with 4% formaldehyde in PBS for 60 min, washed with PBS 3×5 min, permeabilized with 0.1% TritonX100 for 10 min, washed with PBS 3×5 min, and blocked with 1% normal donkey serum (Jackson ImmunoResearch catalog #017-000-121) in PBS for 45 min. The cells were subsequently exposed to 300 μL of anti-luciferase pAb (polyclonal goat antibody, Promega, lot #149040) at a concentration of 40 μg/mL in 1% donkey serum in PBS. After incubation for 2 hr at room temperature in a humidified chamber, the cells were washed with PBS 3×15 min and exposed to 300 μL of an Alexa Fluor 568-labeled rabbit anti-goat IgG (20 μg/mL in 1% donkey serum/PBS for 1 hr, Molecular Probes, catalog #A-11079). Unbound antibody was removed by washing with PBS 3×15 min and the cells treated with 300 μL of mounting medium (N-propyl gallate at 6 mg/mL in 1:1 glycerol:PBS). Images were taken using an Olympus IX-70 microscope equipped with a CCD camera.
Light-Driven Spatially-Discrete Luciferase Expression in Transiently Transfected 293T Cells. We examined whether the combination of 4 and spot illumination induces gene activation in a spatially discrete fashion. Transiently transfected 293T cells were incubated with 1 for 16 hr, fixed, permeabilized, exposed to a luciferase antibody, and stained with an Alexa-labeled secondary antibody. […] 293T cells were also exposed to 4, the media replaced with fresh media to remove extracellular 4, and spot illuminated (˜0.25 mm^2) for 10 sec. The cells were then returned to the incubator for 6 hr and subsequently analyzed for luciferase expression.
However, if photo-uncaged intracellular β-ecdysone does migrate to the extracellular environment then it is possible that sites distant from the region of illumination could undergo unintentional gene activation as well. On the other hand, given the small intracellular volume of a typical cell (˜1 pL) it is likely that any uncaged β-ecdysone that escapes from its intracellular locale will be too dilute to effect changes in gene expression profiles at remote sites. We explicitly addressed this possibility by examining spatially-discrete gene activation using spot illumination of cultured 293T cells. Luciferase expression in fixed and permeabilized cells was visually identified via the coupled use of a luciferase antibody and a secondary Alexa-labeled antibody. […] Luciferase expression is not observed in the absence of β-ecdysone (data not shown) nor in the presence of caged β-ecdysone without light (see below). […] Regions outside of the zone of illumination fail to display luciferase expression.

Series [2] deals with EcR/RXR. As to the kind of experiment: Time-dependent luciferase assays after photolysis, with or without washing out extracellular ligand. The class given is cell-based. As to the method:
Time-dependent luciferase assays. 293T cells were split in a 24-well culture plate (Becton Dickinson Labware, lot #353047) and were transfected by a calcium phosphate method. The cells in 500 μL culture medium were incubated with either 100 μM caged β-ecdysone, 100 μM β-ecdysone, or absent an ecdysteroid ligand. After the cells were incubated with caged β-ecdysone for 16 hours, the medium was removed and washed with PBS once. A fresh medium free of ligand was then immediately added just prior to UV light exposure for 1 min. In the “Caged+hv” experiment, the caged β-ecdysone ligand remained in the medium and these cells were likewise illuminated for 1 min. Cells that were not exposed to ecdysteroid ligand were treated in an otherwise analogous fashion. The cells were then returned to the incubator for various time intervals. Incubation was terminated by treating cells with an extraction buffer (1% Triton X-100 and 1 mM DTT in GME). Luciferase activity was preformed as described above.
Cells were pre-incubated with the caged β-ecdysone 4 for 16 hr, illuminated for 1 min, and then lysed at various time points following photolysis. […] The 293T cell line was pre-incubated with 4 for 16 hr, the media subsequently removed, and the cells washed with PBS. Ecdysone-free media was then added, the cell culture incubated for various time points, and tested for luciferase activity. The gene expression kinetic profile is nearly identical for the two sets of experiments [(4+photolysis) versus (4+washing+photolysis)] during the first 5 hr, which is consistent with the notion that caged β-ecdysone 4 is intracellularly liberated (FIG. 3).
What is the time-dependence of β-ecdysone-induced luciferase expression? We addressed this question by pre-incubating 293T cells with the caged derivative 4 for 16 hr followed by illumination for 1 min. Cells were subsequently incubated for various time intervals, lysed, and luciferase activity assessed. […]

The test system of series [3] is EcR/RXR. The series is described as follows: Luciferase expression in transiently transfected 293T cells with and without 1 min illumination. Particulars: for Fold luciferase induction / Activity as inducing agent in the luciferase-based gene expression system (in words): 293T cells; for Fold luciferase induction: culture media/2% MeOH; for Activity as inducing agent in the luciferase-based gene expression system (in words): without light. The class given is cell-based. The text has this: Plasmid Description. The luciferase reporter (E/GRE)6TK81LUC consists of multimeric E/GRE binding sites from (E/GRE)4ΔMTVLuc linked to the minimal TK promoter in the pA3LUC reporter plasmid. The modified MMTV promoter from MMTVp206 that incorporates the 5′UTR of v-Ha-ras was inserted into a vector containing a modified ecdysone receptor VgEcR (a gift from R. Evans) to form MMTV-VgEcR.
Cell Culture, DNA Transfection, and Luciferase Assays. Cell culture, DNA transfection, and luciferase assays were performed as previously described (Wantanable et al., 1966). Briefly, 293-derived BOSC cells (293T) were seeded into individual wells of a 24 well plate and maintained in Dulbecco's modified Eagles medium with 10% fetal calf serum and 1% penicillin/streptomycin. Cells were transiently transfected with pVgEcR/RXRα and (E/GRE)6TKLUC via a standard calcium phosphate method. The media was changed after 14 hr and the cells treated with 10 μL of 5 mM β-ecdysone 1 (FIG. 1) in methanol (to furnish a 100 μM final concentration of ecdysteroid). Cells were either left un-illuminated or illuminated for 1 min using an Oriel 200 W Hg arc lamp (model 6283) with a 348 nm filter (Oriel, lot number 51260, 50% internal transmittance at 348 nm and cutoff at <325 nm) to remove short wavelength light and two IR filters to remove heat. Cells were subsequently lysed as previously described and the luciferase assay performed at room temperature using an Autolumat LB 953 (EG & G, Berthold). Luciferase content was measured by calculating the light emitted during 10 sec of the reaction. The values are expressed in arbitrary light units.
Light-Driven Luciferase Expression in Transiently Transfected 293T Cells. We employed a luciferase-based expression system to examine the biological activity of β-ecdysone and its alkylated analog 4. The 293T cell line was transiently transfected to constitutively express EcR/RXR and inducibly express (upon exposure to β-ecdysone) luciferase. Compound 4 was added to the transfected 293T cells, the cell culture subsequently illuminated, and luciferase activity assessed (Table 1). There is little observable luciferase activity with culture media alone. Exposure of the cells to the bioactive β-ecdysone 1 generates a nearly 90-fold induction of luciferase. By contrast, the caged analog 4 furnishes a slight 6-fold induction of activity over that of culture media alone. […] The latter is consistent with our observation that a 1 min photolysis time window converts approximately 60% of the caged derivative 4 into its bioactive counterpart 1. Finally, illumination in the absence of ligand fails to induce luciferase production.

The nature of series [4]: Photolysis of caged β-ecdysone 4, HPLC analysis and ferrioxalate actinometry. The class given is physicochemical. As to conditions: ferrioxalate actinometry, HPLC peak areas. On the procedure: Photolysis of Caged β-ecdysone 4. A 500 μL 100 μM solution of 4 in 2% methanol/98% water was placed in a 24-well culture plate. Photolysis was performed using an Oriel 200 W Hg arc lamp (model 6283) with a 348 nm filter (Oriel, lot number 51260; 50% internal transmittance at 348 nm and cutoff at 325 nm) to remove short wavelength light and an IR filter to remove heat. Aliquots of 10 μL were removed at different time points of photolysis and were analyzed by analytical HPLC (monitored at 242 nm) employing a Vydac C4 (250 mm×3.0 mm) column and using the following solvent system: a linear gradient from 95% A (water):5% B (acetonitrile) to 50% A (water):50% (acetonitrile) over 15 min followed by 50% A (water):50% B (acetonitrile) for 5 min with flow rate at 1 mL/min.
Photoconversion of Caged β-Ecdysone 4 to β-Ecdysone 1. A preliminary assessment of the light-induced conversion of the caged analog 4 to β-ecdysone 1 was performed using a 24-well plate system. […] Aliquots from the wells were subsequently analyzed by HPLC to assess formation of 1 (data not shown). […] The photochemical quantum yield (φ=0.034) was determined using ferrioxalate actinometry (Hatchard & Parker, 1956) according to the equation φ=ΔP/(I×t), where t is the irradiation time, ΔP is the amount of photolabile converted, and was determined using HPLC peak areas.

For series [5], the system named is ecdysone-inducible gene expression system. As to conditions: cell-based systems; No et al., 1996; Albanese et al., 2000; cited from earlier work.
Where [6] appears, read: 293T cells pre-incubated 16 hr with 4, illuminated 1 min.
Where [7] appears, read: 100 μM ecdysteroid, not illuminated, versus culture media alone.

Turning to `COc1cc(COC2CC3(C)C(CC2O)C(=O)C=C2C3CCC3(C)C(C(C)(O)C(O)CCC(C)(C)O)CCC23O)c([N+](=O)[O-])cc1OC` (stereo not drawn) [caged β-ecdysone 4], in the series with EcR/RXR [1], the “Luciferase expression by immunofluorescence, without illumination” value is “failed to exhibit detectable luciferase expression”. Also, the “Luciferase expression by immunofluorescence after spot illumination” value in the series on EcR/RXR [1] was “spatially discrete luciferase expression is observed”; in the series with EcR/RXR [1] (listed as 4) it was “Only those regions exposed to UV light display luciferase production”. For the same molecule, the “Luciferase activity relative to maximal activity displayed by β-ecdysone” value with EcR/RXR [2] (4 + washing (extracellular 4 removed) + 1 min photolysis) was 50%. Further, the “Post-illumination time at which minimal luciferase activity was first observed” value in the series with EcR/RXR [2] (setting [6]) was found to be 4 h. For the same molecule, in the series with EcR/RXR [2] (setting [6]), the “Time of maximal gene (luciferase) expression after photolysis” value came to 16 h. For the same molecule, the “Luciferase expression relative to that displayed by β-ecdysone 1” value in the series on EcR/RXR [3] (293T cells treated with 4, 1 min photolysis) is “approximately 60%”. Further, the Fold luciferase induction in the series with EcR/RXR [3] (setting [7]) is listed as 6 fold; in the series with EcR/RXR [3] (100 μM ecdysteroid, not illuminated, versus culture media alone, listed as caged β-ecdysome 4), 6.5 ± 0.1 fold; in the series with EcR/RXR [3] (100 μM, 1 min hν (348 nm filter, Hg arc lamp)) it was 50 ± 4 fold. In addition, the “Activity as inducing agent in the luciferase-based gene expression system (in words)” value in the series with EcR/RXR [3] was “virtually inactive”; in the series with EcR/RXR [3] (listed as caged ecdysteroid) it was “nearly inactive”. In addition, the “Photochemical quantum yield φ” value in series [4] was found to be 0.034.

Consider `CC(C)CC[C@@H](O)[C@](C)(O)[C@H]1CC[C@@]2(O)C3=CC(=O)[C@]4(O)C[C@@H](O)[C@@H](O)C[C@]4(C)[C@H]3[C@H](O)C[C@]12C` [muristerone 6, muristerone], for which the “Activity relative to β-ecdysone” value in series [5] was 1,000 times.

`CC(C)CC[C@@H](O)[C@](C)(O)[C@H]1CC[C@@]2(O)C3=CC(=O)[C@@H]4C[C@@H](O)[C@@H](O)C[C@]4(C)[C@H]3CC[C@]12C` [ponasterone A 7, ponasterone A]: in series [5], the “Activity relative to β-ecdysone” value is 1,000 times.

`CC(C)(O)CC[C@@H](O)[C@](C)(O)[C@H]1CC[C@@]2(O)C3=CC(=O)[C@@H]4C[C@@H](O)[C@@H](O)C[C@]4(C)[C@H]3CC[C@]12C` [β-ecdysone 1, β-ecdysone, reference compound]: the “Luciferase expression by immunofluorescence, without illumination” value with EcR/RXR [1] is recorded as “global luciferase expression throughout the cell culture”; in the series on EcR/RXR [1] (listed as 1), “luciferase expression (20% transfection efficiency) was observed throughout the general cell population”. Also, the Fold luciferase induction with EcR/RXR [3] (setting [7]) is given as 88 ± 9 fold; in the series with EcR/RXR [3] (100 μM ecdysteroid, not illuminated, versus culture media alone, listed as β-ecdysone) it was roughly 100 fold.

Source of the values: patent US8076318B2, “Caged ligands and uses thereof” (priority 2002, dated 2011).
